ChEMBL document CHEMBL3638468, “Amides of acetic and propionic acids” (2015)

Target: Neuronal acetylcholine receptor subunit alpha-7 (Rattus norvegicus, UniProt Q05941)
Experiment: Binding Assay: Rat brain tissue (hippocampus or whole brain) is homogenized in homogenization buffer (10% w/v). [0.32 M sucrose, 1 mM EDTA; 0.1 mM phenylmethylsulfonyl fluoride (PMSF), 0.01% (w/v) NaN3, pH 7.4, 4 C.] at 600 rpm in a glass homogenizer. The homogenate is centrifuged (1000xg, 4 C., 10 min) and the supernatant is removed. The pellet is resuspended (20% w/v) and the suspension is centrifuged (1000xg, 4 C., 10 mM). The two supernatants are combined and centrifuged (15 000xg, 4 C., 30 min). The pellet obtained in this way is referred to as the P2 fraction.The P2 pellet is washed twice with binding buffer (50 mM Tris-HCl, 1 mM MgCl2, 120 mM NaCl, 5 mM KCl, 2 mM CaCl2, pH 7.4), and centrifuged (15 000xg, 4 C., 30 min).The P2 membranes are resuspended in binding buffer and incubated in a volume of 250 ul (amount of membrane protein 0.1-0.5 mg) in the presence of 1-5 nM [3H]methyllycaconitine, 0.1% (w/v) BSA (bovine serum albumin) and various concentrations of the test substance.
Type: tissue-based

Sequence of Neuronal acetylcholine receptor subunit alpha-7 (Q05941 whole entry): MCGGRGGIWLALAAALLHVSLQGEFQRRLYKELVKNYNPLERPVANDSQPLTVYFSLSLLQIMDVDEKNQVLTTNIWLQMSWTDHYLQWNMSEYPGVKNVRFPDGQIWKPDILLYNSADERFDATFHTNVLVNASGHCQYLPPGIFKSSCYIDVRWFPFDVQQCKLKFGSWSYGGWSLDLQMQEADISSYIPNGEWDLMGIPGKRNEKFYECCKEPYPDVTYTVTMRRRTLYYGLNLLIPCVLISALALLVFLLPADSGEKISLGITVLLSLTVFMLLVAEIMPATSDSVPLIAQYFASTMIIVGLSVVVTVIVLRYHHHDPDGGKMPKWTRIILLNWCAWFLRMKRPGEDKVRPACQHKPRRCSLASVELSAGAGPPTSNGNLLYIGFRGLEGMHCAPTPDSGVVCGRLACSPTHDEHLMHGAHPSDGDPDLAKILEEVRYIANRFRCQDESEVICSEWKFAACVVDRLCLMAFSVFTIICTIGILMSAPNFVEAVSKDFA

## O=C(CC1CN2CCC1CC2)Nc1cc2ccc(Br)cc2s1 (stereo unspecified)
  Ki: 200 nM
